Reference: PMC12030627, “Radioiodinated Bicyclic RGD Peptide Derivatives for Enhanced Tumor Accumulation” (Pharmaceuticals, 2025)
Like-named read-outs stand apart in the source and are kept apart here. Starred links: 1 amine or outer side, 2 acyl side, 3 side chain; linkers in the order of their positions; H or OH if unused. Positions of bridges follow the written chain, without caps; N, C: chain ends. Non-standard residues stand in square brackets, D forms with d. Residues, ends and D or L forms follow the SMILES beside them. *: point of attachment. Butanoyl(4-(4-I-phenyl)) = O=C(CCCc1ccc(I)cc1)*; TBMB = c1c(C[*:1])cc(C[*:3])cc1C[*:2]; Benzoyl(3-I) = O=C(c1cccc(I)c1)*; 4Abz = Nc1ccc(C(=O)O)cc1

Assay: Biodistribution in U-87 MG tumor-bearing mice
Assay type: in vivo, BALB/c nu-nu mice
Conditions: male, BALB/c nu-nu, mouse, iv, 37 kBq, total radioactivity; for tissue uptake at 5 min: 5 min after i.v. administration; for tissue uptake at 5 min / tissue uptake at 0.5 h / tissue uptake at 1 h / tissue uptake at 2 h / tissue uptake at 6 h / tissue uptake at 12 h / tissue uptake at 24 h: U-87 MG-bearing mice, mean ± SD, n = 3; for tissue uptake at 0.5 h: 30 min after i.v. administration; for tissue uptake at 1 h: 1 h after i.v. administration; for tissue uptake at 2 h: 2 h after i.v. administration; for tissue uptake at 6 h: 6 h after i.v. administration; for tissue uptake at 12 h: 12 h after i.v. administration; for tissue uptake at 24 h: 24 h after i.v. administration
Method: Animal experiments were performed in compliance with institutional animal care regulations, with the study protocol approved by the Experimental Animal Committee of Osaka Medical and Pharmaceutical University (Approval Numbers: 21–76, 22–76, and 23–76). Four-week-old male BALB/c nu-nu mice (Japan SLC, Shizuoka, Japan) were housed under a 12 h light/12 h dark cycle with free access to food and water. Tumor-bearing mice were established by suspending U-87 MG cells (2 × 10^6 cells/mouse) in PBS(–) and subcutaneously injecting 100 μL of the suspension into the right hind leg. For co-implantation models, A549 cells (2 × 10^6 cells/mouse) were suspended in PBS(–) and inoculated (100 μL) into the left hind leg of the same mice already inoculated with U-87 MG cells. Mice with tumor size approximately 10 mm in diameter, 4–5 weeks after inoculation, were used for biodistribution studies. Animals in which either tumor was not viable were excluded from the experiment.
U-87 MG-bearing mice (n = 42, 8–9 weeks old; 22–27 g) were randomly assigned into groups and administered [^125I]bcRGDpal or [^125I]bcRGDiba via intravenous injection (37 kBq in 100 μL of PBS containing 0.1% Tween 80 (PBS-T80)). At 5 min, 30 min, 1 h, 2 h, 6 h, 12 h, or 24 h post-injection, the mice were euthanized (n = 3 per time point). The heart, kidneys, liver, brain, pancreas, spleen, lung, small intestine, large intestine, muscle, skin, stomach, bone, and tumors were excised. Each organ’s weight and radioactivity were measured by a NaI well-type scintillation counter, and the % ID/g was calculated. To investigate the correlation between integrin expression and radioactivity accumulation, biodistribution at 2 h after administration of [^125I]bcRGDpal or [^125I]bcRGDiba was assessed in A549 and U-87 MG co-implantation mice (n = 5) using the same procedure. Additionally, co-implantation mice were injected with [^125I]bcRGDdimer (37 kBq/100 μL PBS-T80) and euthanized at 30 min, 2 h, and 4 h post-injection (n = 4 per time point), and % ID/g values were calculated as described above. The minimum sample size needed for the biodistribution study in U-87 MG-bearing mice was calculated using G Power software version 3.1.9.7. The calculation was based on a two-tailed test, with an effect size of 3.9, a significance level (α) of 0.05, and a statistical power (1 − β) of 0.8. […] The minimum required sample size for the biodistribution study in A549 and U-87 MG co-implantation mice was also calculated to be four animals per group (effect size = 2.5, α = 0.05, 1 − β = 0.8). To guarantee objective results, the experiment was carried out in a blinded manner. Specifically, drug administration and radioactivity measurements were conducted by different investigators to eliminate potential bias.

[1] = U-87 MG tumor, read-out: Radioactivity in U-87 MG tumor
[2] = blood, read-out: Radioactivity in blood
[3] = bone, read-out: Radioactivity in bone
[4] = brain, read-out: Radioactivity in brain
[5] = heart, read-out: Radioactivity in heart
[6] = kidneys, read-out: Radioactivity in kidneys
[7] = large intestine, read-out: Radioactivity in large intestine
[8] = liver, read-out: Radioactivity in liver

N=C(N)NCCC[C@@H]1NC(=O)[C@H]2CSCc3cc(cc(c3)CSC[C@H](C(N)=O)NC(=O)[C@H](CC(=O)O)NC(=O)CNC1=O)CSC[C@H](NC(=O)CNC(=O)[C@H](CO)NC(=O)c1ccc(NC(=O)CNC(=O)[C@H](CO)NC(=O)[C@@H]3CCCN3C(=O)[C@@H]3CCCN3C(=O)[C@@H]3CCCN3C(=O)[C@H](CCCCNC(=O)c3cccc(I)c3)NC(=O)CCCc3ccc(I)cc3)cc1)C(=O)N[C@@H](Cc1c[nH]cn1)C(=O)N1CCC[C@H]1C(=O)N[C@@H](CCC(N)=O)C(=O)N2 [[^125I]bcRGDiba] ({Butanoyl(4-(4-I-phenyl))}-K(Benzoyl(3-I))PPPSG[4Abz]SGCHPQ[dC]RGD[dC]-NH2; linker 10-14-18 via TBMB)
tissue uptake at 5 min [1]: 2.2 ± 0.5 %ID/g
tissue uptake at 0.5 h [1]: 3.4 ± 0.5 %ID/g
tissue uptake at 1 h [1]: 3.6 ± 0.8 %ID/g
tissue uptake at 2 h [1]: 3.6 ± 0.7 %ID/g
tissue uptake at 6 h [1]: 2.9 ± 0.4 %ID/g
tissue uptake at 12 h [1]: 1.4 ± 0.3 %ID/g
tissue uptake at 24 h [1]: 0.5 ± 0.1 %ID/g
tissue to tissue ratio (U-87 MG tumor/blood, all time points (5 min to 24 h)): < 1
tissue uptake at 5 min [2]: 23.3 ± 2.9 %ID/g
tissue uptake at 0.5 h [2]: 18.5 ± 1 %ID/g
tissue uptake at 1 h [2]: 15.4 ± 1.2 %ID/g
tissue uptake at 2 h [2]: 14 ± 1.5 %ID/g
tissue uptake at 6 h [2]: 8.5 ± 1 %ID/g
tissue uptake at 12 h [2]: 3.9 ± 0.7 %ID/g
tissue uptake at 24 h [2]: 1.4 ± 0.1 %ID/g
tissue uptake at 5 min [3]: 1.7 ± 0.3 %ID/g
tissue uptake at 0.5 h [3]: 1.9 ± 0.6 %ID/g
tissue uptake at 1 h [3]: 1.6 ± 0.4 %ID/g
tissue uptake at 2 h [3]: 1.5 ± 0.3 %ID/g
tissue uptake at 6 h [3]: 1.3 ± 0.1 %ID/g
tissue uptake at 12 h [3]: 0.6 ± 0.2 %ID/g
tissue uptake at 24 h [3]: 0.3 ± 0.1 %ID/g
tissue uptake at 5 min [4]: 0.6 ± 0.2 %ID/g
tissue uptake at 0.5 h [4]: 0.4 ± 0.1 %ID/g
tissue uptake at 1 h [4]: 0.4 %ID/g
tissue uptake at 2 h [4]: 0.3 %ID/g
tissue uptake at 6 h [4]: 0.2 %ID/g
tissue uptake at 12 h [4]: 0.1 %ID/g
tissue uptake at 5 min [5]: 7.4 ± 1.4 %ID/g
tissue uptake at 0.5 h [5]: 5.3 ± 0.5 %ID/g
tissue uptake at 1 h [5]: 4.5 ± 0.8 %ID/g
tissue uptake at 2 h [5]: 4.2 ± 0.1 %ID/g
tissue uptake at 6 h [5]: 2.7 ± 0.2 %ID/g
tissue uptake at 12 h [5]: 1.3 ± 0.1 %ID/g
tissue uptake at 24 h [5]: 0.5 %ID/g
tissue uptake at 5 min [6]: 7.8 ± 0.5 %ID/g
tissue uptake at 0.5 h [6]: 7.1 ± 1.4 %ID/g
tissue uptake at 1 h [6]: 7.3 ± 0.4 %ID/g
tissue uptake at 2 h [6]: 5.5 ± 0.3 %ID/g
tissue uptake at 6 h [6]: 3.9 ± 0.4 %ID/g
tissue uptake at 12 h [6]: 1.8 ± 0.1 %ID/g
tissue uptake at 24 h [6]: 0.8 ± 0.1 %ID/g
tissue uptake at 5 min [7]: 1.5 ± 0.7 %ID/g
tissue uptake at 0.5 h [7]: 1 ± 0.1 %ID/g
tissue uptake at 1 h [7]: 1 ± 0.1 %ID/g
tissue uptake at 2 h [7]: 7.1 ± 2 %ID/g
tissue uptake at 6 h [7]: 11.3 ± 2 %ID/g
tissue uptake at 12 h [7]: 3.4 ± 1 %ID/g
tissue uptake at 24 h [7]: 2.2 ± 0.2 %ID/g
tissue uptake at 5 min [8]: 7.6 ± 0.5 %ID/g
tissue uptake at 0.5 h [8]: 6.9 ± 0.2 %ID/g
